According to patent US8999320B2, “Nanoscale bound bilayers, methods of use and production” (The Rockefeller University, priority 2008, dated 2015):

Experiments:
[1] = test system: 2D7 capture antibody; assay: Sandwich ELISA with conformation sensitive 2D7 capture and 1D4 detection antibodies; type: binding; conditions: CCR5 from HEK-293 cells; 30 minutes at room temperature; sample 1 = DDM, CHAPS, DOPC/POPC
Protocol: The primary (capture) antibody was diluted to 1 μg/mL in 1×PBS pH 7.2 and 100 μL was added to each well of the microplate (Costar clear-bottom, black 96-well). The plate was stored overnight at 4° C. The plate wells were washed twice with PBS containing 0.05% Tween-20 and once with PBS and 200 μL of 10 mg/mL (1%) fatty-acid free BSA in PBS. The plate was either incubated at room temperature for 2 hours or overnight at 4° C. G-protein coupled receptor (GPCR)—NABBs were added to the respective wells in a final volume of 100 μL. GPCR-NABB was diluted in PBS containing 1 mg/mL (0.1%) BSA. The microplate was incubated at 4° C. overnight to ensure complete binding of epitope on the GPCR-NABB to the capture antibody. The analyte was then washed 3 times with 0.1% BSA-PBS using 200 μL per wash. […] The fluorescence in the wells was measured using a Cytofluor-II spectrofluorimeter with excitation at 530 nm and emission at 590 nm.
Conformational stability of the extracellular side of CCR5 after exposure to different detergents was determined by a sandwich ELISA using 2D7 and 1D4 antibodies. […] The amount of CCR5 bound to the 2D7 capture antibody was measured by detecting the binding of the second antibody-HRP-linked 1D4, and adding a fluorogenic HRP substrate in the microplate wells. […]

[2] = molecular target: T1, CCR5 (Homo sapiens, UniProt P51681); assay: High-throughput G-protein activation assay (BODIPY-FL-GTPγS binding) with CCR5-NABBs; type: biochemical; conditions: 50 nM RANTES, CCR5 in NABBs
T1 construct: made in house; host or cells: HEK-293 cells stably expressing CCR5, immunopurified on 1D4-sepharose
T1 sequence (P51681 whole entry): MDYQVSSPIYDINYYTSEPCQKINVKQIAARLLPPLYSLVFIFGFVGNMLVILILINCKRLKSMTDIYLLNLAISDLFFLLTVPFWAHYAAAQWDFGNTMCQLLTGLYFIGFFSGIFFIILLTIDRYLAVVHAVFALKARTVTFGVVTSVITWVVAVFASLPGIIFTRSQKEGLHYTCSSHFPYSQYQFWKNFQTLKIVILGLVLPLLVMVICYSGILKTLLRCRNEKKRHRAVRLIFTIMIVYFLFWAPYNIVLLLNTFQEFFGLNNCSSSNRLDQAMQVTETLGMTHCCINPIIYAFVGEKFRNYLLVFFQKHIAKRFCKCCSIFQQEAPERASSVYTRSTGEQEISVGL
Protocol: A black, C-bottom 96-well plate was used for the high-throughput G-protein activation assay. 25 μL of purified G protein or its subunits were added to the microplate wells from a […] protein stock. The added proteins were either Gi1α subunit, Gi1α with transducin βγ subunits, or holotransducin (Gt), with 25 μl of buffer G1 without GDP. […] 100 μL of CCR5-NABB solution with and without RANTES were added to the respective wells and the microplate incubated at room temperature for 15 minutes. 60 μL of BODIPY-FL-GTPγS was added from a 1 μM stock to all wells using a multi-channel pipettor. The plate was shaken for 30 seconds, covered and incubated at room temperature for 5 minutes. The fluorescence in the wells was recorded using a Cytofluor II microplate reader with excitation wavelength at 485 nm and 20 nm bandpass, emission wavelength at 530 nm and 25 nm bandpass. The gain was set to 95 and 15 reads were integrated for each well. The fluorescence values from the wells containing BODIPY-FL-GTPγS and no G protein was subtracted from the rest of the data as background. The fluorescence values from wells containing the CCR5-NABBs with no RANTES was subtracted from RANTES-containing wells to determine the RANTES-specific response.
CCR5 activation of G protein was measured by binding of a fluorescently labeled nucleotide analog BODIPY-FL-GTPγS. […]

Row | Compound | 2D7/1D4 sandwich ELISA signal relative to sample 1 [1] | enhancement of B-GTPγS binding to the G protein, compared with unstimulated CCR5-NABBs [2]
1 | CCCCCCCCCCCCO[C@@H]1O[C@H](CO)[C@@H](O[C@H]2O[C@H](CO)[C@@H](O)[C@H](O)[C@H]2O)[C@H](O)[C@H]1O [DDM, n-dodecyl-beta-D-maltopyranoside] | 65% | 
2 | RANTES: ligand used to stimulate CCR5 in NABBs |  | up to 30%
